Where two headings read alike, the source gives them in different places.
Legend:
PRC2 containing wt EZH2 = PRC2 containing wt EZH2 (Homo sapiens (Human), UniProt Q15910); assay: EZH2 biochemical assay (IC50), 3H-SAM incorporation into biotinylated H3 peptide
Outline: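 The PRC2 pentamer with wt EZH2 (30 pM) was pre-incubated for 3-5 h with 450 nM SAM plus 450 nM ³H-SAM, 2 µM H3K27me3 activating peptide and compound (0.8% DMSO) in Tris at pH 8.5. Biotinylated H3K27me1 peptide was added and the reaction ran 18-22 h at RT. Incorporated ³H was captured on streptavidin plates, and IC50 was taken from a four-parameter fit.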

[1] = system: H3K27me3 mark in HeLa cells (EZH2); assay: H3K27me3 Alpha Hela Assay (AlphaLISA); type: cell-based; conditions: HeLa cells, 72 hrs, read-out: EZH2 Cell H3K27me3 Alpha HeLa (EC50 K27me3)
Outline: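 HeLa cells (1,000/well) treated with ten 3-fold compound doses for 72 h at 37 °C; lysates extracted and H3K27me3 detected by AlphaLISA with anti-K27me3 acceptor beads, biotinylated anti-H3 (3 nM) and streptavidin donor beads. EC50 from DMSO-normalized dose-response curves; duplicate plate assessed viability.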

[2] = 30 pM PRC2 containing wt EZH2; 3-5 h pre-incubation; read-out: EZH2 (IC50)
[3] = EZH2 (IC50), 30 pM PRC2 containing wt EZH2; 3-5 h pre-incubation
[4] = read-out: EZH2 (IC50); 30 pM PRC2 containing wt EZH2; 3-5 h pre-incubation

Sequence of PRC2 containing wt EZH2 (Q15910 whole entry): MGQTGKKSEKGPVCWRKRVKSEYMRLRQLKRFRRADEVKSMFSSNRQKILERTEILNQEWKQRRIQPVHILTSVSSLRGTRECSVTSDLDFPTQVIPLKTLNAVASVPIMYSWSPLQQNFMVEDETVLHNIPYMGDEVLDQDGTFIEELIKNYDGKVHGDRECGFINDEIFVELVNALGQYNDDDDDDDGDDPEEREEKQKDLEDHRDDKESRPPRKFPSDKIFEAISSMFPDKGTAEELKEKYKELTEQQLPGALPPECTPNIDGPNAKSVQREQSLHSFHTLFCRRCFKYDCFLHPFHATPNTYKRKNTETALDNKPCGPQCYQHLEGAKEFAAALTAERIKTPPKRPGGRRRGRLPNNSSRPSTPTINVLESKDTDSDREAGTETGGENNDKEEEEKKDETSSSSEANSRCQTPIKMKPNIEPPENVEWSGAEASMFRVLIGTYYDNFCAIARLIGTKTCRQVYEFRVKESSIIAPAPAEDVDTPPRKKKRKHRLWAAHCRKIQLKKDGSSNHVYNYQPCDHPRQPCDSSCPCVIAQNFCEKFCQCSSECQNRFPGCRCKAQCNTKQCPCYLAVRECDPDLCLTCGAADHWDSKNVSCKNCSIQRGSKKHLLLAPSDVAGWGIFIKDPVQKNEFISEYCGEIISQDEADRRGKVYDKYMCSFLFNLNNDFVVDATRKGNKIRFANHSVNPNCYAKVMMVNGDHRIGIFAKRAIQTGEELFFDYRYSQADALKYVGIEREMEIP
Sequence of PRC2 containing wt EZH2 (O75530 whole entry partner): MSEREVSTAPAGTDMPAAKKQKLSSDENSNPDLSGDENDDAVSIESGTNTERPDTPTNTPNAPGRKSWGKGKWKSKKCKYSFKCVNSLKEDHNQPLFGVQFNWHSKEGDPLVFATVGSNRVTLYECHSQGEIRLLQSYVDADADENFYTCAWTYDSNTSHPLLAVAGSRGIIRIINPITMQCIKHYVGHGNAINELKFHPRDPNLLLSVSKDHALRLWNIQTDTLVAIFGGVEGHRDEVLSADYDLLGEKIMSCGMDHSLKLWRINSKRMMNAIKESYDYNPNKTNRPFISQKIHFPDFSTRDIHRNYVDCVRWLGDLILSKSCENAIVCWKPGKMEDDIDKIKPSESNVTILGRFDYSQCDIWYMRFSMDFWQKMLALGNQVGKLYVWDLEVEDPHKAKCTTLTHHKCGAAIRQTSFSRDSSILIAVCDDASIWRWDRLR
Sequence of PRC2 containing wt EZH2 (Q15022 whole entry partner): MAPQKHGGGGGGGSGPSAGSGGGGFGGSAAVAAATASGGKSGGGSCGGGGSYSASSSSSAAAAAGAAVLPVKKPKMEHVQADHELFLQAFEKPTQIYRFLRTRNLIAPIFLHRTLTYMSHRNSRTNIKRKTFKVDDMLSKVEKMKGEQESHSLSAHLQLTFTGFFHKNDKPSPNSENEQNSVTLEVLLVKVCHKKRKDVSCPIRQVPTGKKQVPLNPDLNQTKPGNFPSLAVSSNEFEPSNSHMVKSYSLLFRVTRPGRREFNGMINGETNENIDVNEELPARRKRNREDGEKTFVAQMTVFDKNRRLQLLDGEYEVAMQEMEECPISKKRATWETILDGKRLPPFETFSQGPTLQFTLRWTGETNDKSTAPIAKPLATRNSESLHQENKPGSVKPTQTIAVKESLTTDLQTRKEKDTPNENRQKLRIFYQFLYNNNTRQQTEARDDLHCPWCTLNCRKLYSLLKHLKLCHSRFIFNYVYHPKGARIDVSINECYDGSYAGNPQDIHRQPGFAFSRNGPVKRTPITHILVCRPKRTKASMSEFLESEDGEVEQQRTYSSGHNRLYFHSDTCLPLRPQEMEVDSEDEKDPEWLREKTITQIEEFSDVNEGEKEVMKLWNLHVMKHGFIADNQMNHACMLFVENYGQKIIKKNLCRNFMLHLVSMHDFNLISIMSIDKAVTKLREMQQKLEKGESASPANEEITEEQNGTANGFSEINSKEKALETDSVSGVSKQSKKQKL
Sequence of PRC2 containing wt EZH2 (Q09028 whole entry partner): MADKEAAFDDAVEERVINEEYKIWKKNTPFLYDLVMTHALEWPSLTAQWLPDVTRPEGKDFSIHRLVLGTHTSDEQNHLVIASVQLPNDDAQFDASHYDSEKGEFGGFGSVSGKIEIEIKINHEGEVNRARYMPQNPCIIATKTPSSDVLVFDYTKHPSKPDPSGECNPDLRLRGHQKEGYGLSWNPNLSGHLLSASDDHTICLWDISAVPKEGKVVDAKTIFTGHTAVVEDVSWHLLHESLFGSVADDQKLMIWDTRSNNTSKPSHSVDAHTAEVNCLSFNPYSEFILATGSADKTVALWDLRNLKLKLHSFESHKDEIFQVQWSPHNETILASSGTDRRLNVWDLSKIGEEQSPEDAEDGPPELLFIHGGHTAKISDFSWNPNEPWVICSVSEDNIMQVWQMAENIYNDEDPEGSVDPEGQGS
Sequence of PRC2 containing wt EZH2 (Q6ZN18 whole entry partner): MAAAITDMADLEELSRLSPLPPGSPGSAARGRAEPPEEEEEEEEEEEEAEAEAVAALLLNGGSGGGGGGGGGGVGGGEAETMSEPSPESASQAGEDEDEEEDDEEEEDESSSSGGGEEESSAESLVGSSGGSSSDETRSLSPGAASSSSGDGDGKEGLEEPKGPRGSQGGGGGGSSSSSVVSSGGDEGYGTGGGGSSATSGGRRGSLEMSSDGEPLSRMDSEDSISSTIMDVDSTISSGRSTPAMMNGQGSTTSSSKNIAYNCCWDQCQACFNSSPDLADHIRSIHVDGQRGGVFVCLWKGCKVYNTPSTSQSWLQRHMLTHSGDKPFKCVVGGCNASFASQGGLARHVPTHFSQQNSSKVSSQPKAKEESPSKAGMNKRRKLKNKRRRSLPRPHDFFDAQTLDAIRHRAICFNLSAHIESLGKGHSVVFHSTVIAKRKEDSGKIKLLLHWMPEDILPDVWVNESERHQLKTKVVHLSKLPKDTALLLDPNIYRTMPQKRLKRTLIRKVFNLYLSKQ

SMILES | IC50 (PRC2 containing wt EZH2; [2]) [nM] | EC50 [1] [nM] | IC50 (PRC2 containing wt EZH2; [3]) [nM] | EC50 ([1]; Homo sapiens, HeLa, 72 h) [nM] | IC50 (PRC2 containing wt EZH2; [4]) [nM]
COCCN(C)C1COC([C@@H](C)n2c(C)c(C(=O)NCc3c(SC)cc(C)[nH]c3=O)c3ccccc32)OC1 (single isomer, unassigned) [16 (isomer 1)] | < 0.5 | < 10 | – | – | –
CSc1cc(C)[nH]c(=O)c1CNC(=O)c1c(C)n([C@H](C)C2CCC(N3CC(F)C3)CC2)c2ccccc12 (single isomer, unassigned) [24 (isomer 1)] | – | – | < 0.5 | < 10 | –
CC[C@H](C1CCC(N2CC(OC(F)F)C2)CC1)n1c(C)c(C(=O)NCc2c(SC)cc(C)[nH]c2=O)c2cccnc21 (stereo partly drawn) [Example 118, 1-((R)-1-(4-(3-(difluoromethoxy)azetidin-1-yl)cyclohexyl)propyl)-2-methyl-N-((6-methyl-4-(methylthio)-2-oxo-1,2-dihydropyridin-3-yl)methyl)-1H-pyrrolo[2,3-b]pyridine-3-carboxamide] | < 0.5 | – | – | < 10 | –
CSc1cc(C)[nH]c(=O)c1CNC(=O)c1c(C)n([C@H](C)C2CCC(NC3(CF)COC3)CC2)c2ncncc12 (single isomer, unassigned) [156 (isomer 2)] | < 0.5 | 10 to 100 | – | – | –
CSc1cc(C)[nH]c(=O)c1CNC(=O)c1c(C)n([C@H](C)C2CCC(NC3(CO)COC3)CC2)c2cc(F)ccc12 (single isomer, unassigned) [159 (isomer 1)] | < 0.5 | – | – | 10 to 100 | –
CSc1cc(C)[nH]c(=O)c1CNC(=O)c1c(C)n([C@H](C)C2CCC(N3CC(C#N)C3)CC2)c2ccccc12 (single isomer, unassigned) [138 (isomer 1)] | – | – | 0.5 to 5 | 10 to 100 | –
CSc1cc(C)[nH]c(=O)c1CNC(=O)c1c(C)n([C@H](C)C2CCC(OC(C)=O)CC2)c2ccccc12 (single isomer, unassigned) [134 (isomer 1)] | < 0.5 | – | – | < 10 | –
COCCOC1CCC([C@@H](C)n2c(C)c(C(=O)NCc3c(SC)cc(C)[nH]c3=O)c3ccccc32)CC1 (single isomer, unassigned) [67 (isomer 1)] | – | – | – | 10 to 100 | < 0.5
CSc1cc(C)[nH]c(=O)c1CNC(=O)c1c(C)n([C@H](C)C2CCC(N3CC(n4ccnn4)C3)CC2)c2ccccc12 (stereo partly drawn) [Example 160, 1-((R)-1-(4-(3-(1H-1,2,3-triazol-1-yl)azetidin-1-yl)cyclohexyl)ethyl)-2-methyl-N-((6-methyl-4-(methylthio)-2-oxo-1,2-dihydropyridin-3-yl)methyl)-1H-indole-3-carboxamide] | < 0.5 | – | – | < 10 | –
CSc1cc(C)[nH]c(=O)c1CNC(=O)c1c(C)n([C@H](C)C2CCC(NC3(CF)COC3)CC2)c2ccccc12 (single isomer, unassigned) [154 (isomer 1)] | < 0.5 | – | – | 10 to 100 | –
CSc1cc(C)[nH]c(=O)c1CNC(=O)c1c(C)n([C@H](C)C2CCN(CC(F)(F)F)CC2)c2cccc(Cl)c12 [Example 103, (R)-4-chloro-2-methyl-N-((6-methyl-4-(methylthio)-2-oxo-1,2-dihydropyridin-3-yl)methyl)-1-(1-(1-(2,2,2-trifluoroethyl)piperidin-4-yl)ethyl)-1H-indole-3-carboxamide] | – | – | < 0.5 | < 10 | –
CSc1cc(C)[nH]c(=O)c1CNC(=O)c1c(C)n([C@H](C)[C@H]2OC[C@H](N3CCC34COC4)CO2)c2ccccc12 (single isomer, unassigned; isomer 2) [150 (isomer 2)] | < 0.5 | < 10 | – | – | –
CSc1cc(C)[nH]c(=O)c1CNC(=O)c1c(C)n([C@H](C)C2CCC(N3CC(OC(F)F)C3)CC2)c2ccccc12 (single isomer, unassigned) [20 (isomer 2)] | < 0.5 | 10 to 100 | – | – | –
COC1CC(N2CCC([C@@H](C)n3c(C)c(C(=O)NCc4c(SC)cc(C)[nH]c4=O)c4cccnc43)CC2)C1 (stereo partly drawn) [Example 141, (R)-1-(1-(1-(3-methoxycyclobutyl)piperidin-4-yl)ethyl)-2-methyl-N-((6-methyl-4-(methylthio)-2-oxo-1,2-dihydropyridin-3-yl)methyl)-1H-pyrrolo[2,3-b]pyridine-3-carboxamide] | – | – | < 0.5 | 10 to 100 | –
CSc1cc(C)[nH]c(=O)c1CNC(=O)c1c(C)n([C@H](C)C23CC(N(C)C4COC4)(C2)C3)c2ccccc12 [Example 9, (R)-2-methyl-1-(1-(3-(methyl(oxetan-3-yl)amino)bicyclo[1.1.1]pentan-1-yl)ethyl)-N-((6-methyl-4-(methylthio)-2-oxo-1,2-dihydropyridin-3-yl)methyl)-1H-indole-3-carboxamide] | < 0.5 | – | – | < 10 | –
CSc1cc(C)[nH]c(=O)c1CNC(=O)c1c(C)n([C@H](C)C2CCN(C(=O)CN(C)C)CC2)c2ccccc12 [Example 142, (R)-1-(1-(1-(dimethylglycyl)piperidin-4-yl)ethyl)-2-methyl-N-((6-methyl-4-(methylthio)-2-oxo-1,2-dihydropyridin-3-yl)methyl)-1H-indole-3-carboxamide] | < 0.5 | – | – | > 100 | –

SMILES | IC50 (PRC2 containing wt EZH2; [2]) [nM] | EC50 [1] [nM] | IC50 (PRC2 containing wt EZH2; [3]) [nM] | EC50 ([1]; Homo sapiens, HeLa, 72 h) [nM] | IC50 (PRC2 containing wt EZH2; [4]) [nM]
CSc1cc(C)[nH]c(=O)c1CNC(=O)c1c(C)n([C@H](C)C2CCC(NC3(C(F)(F)F)COC3)CC2)c2ncccc12 (single isomer, unassigned) [163 (isomer 2)] | 0.5 to 5 | 10 to 100 | – | – | –
CSc1cc(C)[nH]c(=O)c1CNC(=O)c1c(C)n([C@H](C)C2CCC(N3CC(OC(F)F)C3)CC2)c2ccccc12 (single isomer, unassigned) [20 (isomer 1)] | < 0.5 | – | – | < 10 | –
CSc1cc(C)[nH]c(=O)c1CNC(=O)c1c(C)n([C@H](C)C2CCN(CC(F)(F)F)CC2)c2cc(F)ccc12 [Example 92, (R)-6-fluoro-2-methyl-N-((6-methyl-4-(methylthio)-2-oxo-1,2-dihydropyridin-3-yl)methyl)-1-(1-(1-(2,2,2-trifluoroethyl)piperidin-4-yl)ethyl)-1H-indole-3-carboxamide] | – | – | < 0.5 | < 10 | –
CSc1cc(C)[nH]c(=O)c1CNC(=O)c1c(C)n([C@H](C)C2CCC(N3CC(OC(F)F)C3)CC2)c2c(F)cccc12 (single isomer, unassigned) [121 (isomer 2)] | 0.5 to 5 | > 100 | – | – | –
COC1CCC([C@@H](C)n2c(C)c(C(=O)NCc3c(SC)cc(C)[nH]c3=O)c3cncnc32)CC1 (single isomer, unassigned) [41 (isomer 2)] | – | < 10 | – | – | < 0.5
COc1cnc2c(c1)c(C(=O)NCc1c(SC)cc(C)[nH]c1=O)c(C)n2[C@H](C)C1CCC(N2CC(OC(F)F)C2)CC1 (single isomer, unassigned) [125 (isomer 1)] | < 0.5 | – | – | < 10 | –
CCCC(=O)OC1CCC([C@@H](C)n2c(C)c(C(=O)NCc3c(SC)cc(C)[nH]c3=O)c3ccccc32)CC1 (single isomer, unassigned) [143 (isomer 2)] | < 0.5 | < 10 | – | – | –
CSc1cc(C)[nH]c(=O)c1CNC(=O)c1c(C)n([C@H](C)C2CCC(N3CC(C)(F)C3)CC2)c2ncccc12 (stereo partly drawn) [Example 80, 1-((R)-1-(4-(3-fluoro-3-methylazetidin-1-yl)cyclohexyl)ethyl)-2-methyl-N-((6-methyl-4-(methylthio)-2-oxo-1,2-dihydropyridin-3-yl)methyl)-1H-pyrrolo[2,3-b]pyridine-3-carboxamide] | – | – | < 0.5 | 10 to 100 | –
CSc1cc(C)[nH]c(=O)c1CNC(=O)c1c(C)n([C@H](C)C2CCC(N3CC(OC4CC4)C3)CC2)c2ncncc12 (single isomer, unassigned) [102 (isomer 2)] | < 0.5 | 10 to 100 | – | – | –
CSc1cc(C)[nH]c(=O)c1CNC(=O)c1c(C)n([C@H](C)C2CCC(N3CC[C@@H](OC(F)F)C3)CC2)c2ncccc12 (stereo partly drawn) [Example 119, 1-((R)-1-(4-((R)-3-(difluoromethoxy)pyrrolidin-1-yl)cyclohexyl)ethyl)-2-methyl-N-((6-methyl-4-(methylthio)-2-oxo-1,2-dihydropyridin-3-yl)methyl)-1H-pyrrolo[2,3-b]pyridine-3-carboxamide] | < 0.5 | – | – | < 10 | –
CSc1cc(C)[nH]c(=O)c1CNC(=O)c1c(C)n([C@H](C)C2CCC(NC3(C)CCOC3)CC2)c2ccccc12 (single isomer, unassigned) [149 (isomer 1)] | < 0.5 | – | – | 10 to 100 | –
CSc1cc(C)[nH]c(=O)c1CNC(=O)c1c(C)n([C@H](C)C2CCC(N3CC(OC4CC4)C3)CC2)c2c(F)cccc12 (single isomer, unassigned) [113 (isomer 2)] | < 0.5 | 10 to 100 | – | – | –
CSc1cc(C)[nH]c(=O)c1CNC(=O)c1c(C)n([C@H](C)C2CCN(C3(C)CC3)CC2)c2ncccc12 [Example 131, (R)-2-methyl-N-((6-methyl-4-(methylthio)-2-oxo-1,2-dihydropyridin-3-yl)methyl)-1-(1-(1-(1-methylcyclopropyl)piperidin-4-yl)ethyl)-1H-pyrrolo[2,3-b]pyridine-3-carboxamide] | – | – | < 0.5 | < 10 | –
CSc1cc(C)[nH]c(=O)c1CNC(=O)c1c(C)n([C@H](C)C2CCC(N3CCOCC3)CC2)c2ccccc12 (single isomer, unassigned) [75 (isomer 2)] | – | 10 to 100 | – | – | < 0.5
CSc1cc(C)[nH]c(=O)c1CNC(=O)c1c(C)n([C@H](C)[C@@H]2CCN(C3CC3)CC2(F)F)c2ncccc12 (single isomer, unassigned) [70 (isomer 2)] | – | – | 0.5 to 5 | > 100 | –
